ChEMBL document CHEMBL4330129 (Bioorg Med Chem, 2019)
Values after ≈ are worked out from the molar mass of the structure shown.

How the values were obtained:
[1] = Binding affinity to FLAG/His-tagged Keap1 (unknown origin)/biotinylated full-length FLAG/His/Tev/Avi-tagged Cul3 (unknown origin) expressed in baculovirus infected Sf9 insect cells measured after 1 hr by TR-FRET assay; design: species or system Homo sapiens
[2] = target: Keap1/Nrf2 (Homo sapiens, UniProt Q14145+Q16236); assay: Binding affinity to FLAG/His-tagged Keap1 (unknown origin)/biotinylated full-length FLAG/His/Tev/Avi-tagged NRF2 (unknown origin) expressed in baculovirus infected Sf9 insect cells measured after 1 hr by TR-FRET assay
[3] = organism: Homo sapiens; assay: Activation of Keap1/Cul3/Nrf2 in NHBE cells assessed as induction of HO-1 gene expression at 10 uM after 24 hrs by RT-PCR analysis relative to SFN; type: cell-based
[4] = Kinetic solubility of the compound at pH 7.4 by CLND method; type: physicochemical; conditions: buffer, read-out: Kinetic_solubility
[5] = Lipophilicity, log D of the compound at pH 7.4 by chromatographic method; type: physicochemical; conditions: buffer

Keap1/Nrf2, sequence (Q16236 whole entry): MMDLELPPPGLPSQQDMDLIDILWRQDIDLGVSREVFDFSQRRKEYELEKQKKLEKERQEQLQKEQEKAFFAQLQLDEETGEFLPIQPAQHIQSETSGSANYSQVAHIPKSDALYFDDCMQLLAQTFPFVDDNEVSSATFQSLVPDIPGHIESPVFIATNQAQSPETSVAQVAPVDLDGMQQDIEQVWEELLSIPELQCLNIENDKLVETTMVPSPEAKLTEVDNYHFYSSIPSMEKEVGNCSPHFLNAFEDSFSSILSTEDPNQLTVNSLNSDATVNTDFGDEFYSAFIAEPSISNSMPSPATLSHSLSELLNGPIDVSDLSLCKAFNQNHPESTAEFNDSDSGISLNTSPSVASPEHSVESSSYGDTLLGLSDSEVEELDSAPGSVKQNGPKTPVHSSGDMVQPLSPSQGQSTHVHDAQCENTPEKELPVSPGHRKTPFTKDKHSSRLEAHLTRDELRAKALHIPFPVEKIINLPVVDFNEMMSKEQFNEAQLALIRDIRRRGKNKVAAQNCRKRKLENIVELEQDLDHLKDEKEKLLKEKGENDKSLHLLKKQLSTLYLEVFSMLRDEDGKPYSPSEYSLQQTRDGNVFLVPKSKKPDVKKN
Keap1/Nrf2, sequence (Q14145 whole entry): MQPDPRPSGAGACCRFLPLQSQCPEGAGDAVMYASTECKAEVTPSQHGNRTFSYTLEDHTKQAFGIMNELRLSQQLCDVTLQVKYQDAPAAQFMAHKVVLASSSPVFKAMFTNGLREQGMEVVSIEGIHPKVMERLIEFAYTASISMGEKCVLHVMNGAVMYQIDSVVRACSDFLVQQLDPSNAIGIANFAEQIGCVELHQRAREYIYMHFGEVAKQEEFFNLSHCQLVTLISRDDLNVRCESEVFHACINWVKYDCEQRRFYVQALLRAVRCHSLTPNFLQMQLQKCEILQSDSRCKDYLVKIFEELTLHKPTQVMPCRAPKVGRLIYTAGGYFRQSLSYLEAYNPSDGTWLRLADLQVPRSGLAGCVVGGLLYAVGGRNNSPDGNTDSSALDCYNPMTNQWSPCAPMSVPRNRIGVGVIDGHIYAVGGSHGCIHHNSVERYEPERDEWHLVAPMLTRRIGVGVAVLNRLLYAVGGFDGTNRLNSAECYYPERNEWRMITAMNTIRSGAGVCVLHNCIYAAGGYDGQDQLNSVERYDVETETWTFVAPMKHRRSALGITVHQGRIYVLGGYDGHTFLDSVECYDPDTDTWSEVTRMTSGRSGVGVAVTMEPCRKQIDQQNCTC

| Compound | pIC50 [1] | IC50 [2] [µM] | fold change (FC) [3] | solubility kinetic [4] [µM] | chromatographic logD [5] |
| --- | --- | --- | --- | --- | --- |
| O=C(O)C(F)(F)F.[O-][S+](CCCCN=C=S)CCN1CCOCC1 (stereo not drawn) | < 4 | > 100 | 0.16 | 81 | 1.91 |
| CC(C)(C)OC(=O)N1CCC(SC(=S)NCCCCNC(=O)NC2CCCC2)CC1 | 4.4 | > 100 | 27.3 | 53 (≈ 24.3 µg/mL) | 6.1 |
| O=C(CCc1ccccc1)NCCCCN=C=S | 4.4 | 25.1 | 9.84 | 337 (≈ 88.4 µg/mL) | 2.59 |
| O=S(=O)(CCCCN=C=S)c1ccccc1 | 4.6 | 50.1 | 4.31 | ≥ 364 | 4.92 |
| CN1CCC(SC(=S)NCCCCNC(=O)Nc2ccc3c(c2)OCO3)CC1 | 5.1 | 20 | 25.1 | ≥ 358 | 2.46 |
| O=C(NCCCCN=C=S)OCc1ccncc1 | 4.6 | 39.8 | 13.3 | 354 (≈ 93.9 µg/mL) | 3.5 |
| O=C(NCCCCN=C=S)Nc1ccc2scnc2c1 | 5.2 | 5.01 | 3.75 |  | 3.77 |
| C[S+]([O-])CCCCNC(=S)SCCCO (stereo not drawn) | < 4 | 25.1 | 0.24 | ≥ 467 | 0.68 |
| C[S+]([O-])CCCCNC(=S)SC1CCN(C(=O)OC(C)(C)C)CC1 (stereo not drawn) | 4.3 | > 100 | 0.48 | 382 (≈ 151 µg/mL) | 4.23 |
| O=C(NCCCCN=C=S)Nc1ccncc1 | 4.7 | 31.6 | 15.3 | 400 (≈ 100 µg/mL) | 2.6 |
| CN1CCC(SC(=S)NCCCCNC(=O)NC2CCCC2)CC1 | 4.5 | 39.8 | 19.3 | ≥ 245 | 2.33 |
| CN1CCC(SC(=S)NCCCCNC(=O)Oc2ccccc2)CC1 | 4.8 | 25.1 | 5.52 | ≥ 410 | 0.9 |
| CCNC(=O)N1CCC(SC(=S)NCCCCNC(=O)NCc2ccccc2)CC1 | 4.4 | 63.1 | 81.8 | 255 (≈ 115 µg/mL) | 3.43 |
| CNC(=O)NCCCCN=C=S | 4.1 | 50.1 | 1.04 | ≥ 436 | 2 |
| O=C(NCCCCN=C=S)NCc1ccccc1 | 4.7 | 15.8 | 6.42 | 247 (≈ 65.1 µg/mL) | 4.29 |
| CN(C)CCCS(=O)(=O)CCCCN=C=S | < 4 | > 100 | 0.34 | 210 (≈ 55.5 µg/mL) | 1.55 |
| CN1CCC(SC(=S)NCCCCNC(=O)CC2CCCCC2)CC1 | 5 | 15.8 | 11.5 |  | 3.28 |
| O=S(=O)(CCCCN=C=S)c1ccccn1 | 4.3 | 31.6 | 2.24 | ≥ 331 | 3.85 |
| CC(=O)NCCS(=O)(=O)CCCCN=C=S | 4.2 | > 100 | 0.37 | ≥ 422 | 1.8 |

| Compound | pIC50 [1] | IC50 [2] [µM] | fold change (FC) [3] | solubility kinetic [4] [µM] | chromatographic logD [5] |
| --- | --- | --- | --- | --- | --- |
| CN(C)CC[S+]([O-])CCCCN=C=S (stereo not drawn) | < 4 | > 100 | 0.49 | ≥ 219 | 1.47 |
| C[S+]([O-])CCCCNC(=S)SCCNC(=O)OC(C)(C)C (stereo not drawn) | < 4 | > 100 | 0.58 | ≥ 432 | 3.12 |
| COC(=O)C(C[S+]([O-])CCCCN=C=S)NC(C)=O (stereo not drawn) | < 4 | > 100 | 0.11 | 279 (≈ 85.5 µg/mL) | 1.61 |
| O=C(NCCCCN=C=S)Nc1ccc2nccnc2c1 | 5.1 | 15.8 | 13.2 | ≥ 356 | 3.13 |
| CN1CCC(SC(=S)NCCCCNC(=O)Nc2ccc3nccnc3c2)CC1 | 5.1 | 10 | 102 | ≥ 400 | 1.52 |
| CN1CCC(SC(=S)NCCCCNC(=O)Nc2ccncc2)CC1 | 4.9 | 20 | 29.8 | ≥ 350 | 1.02 |
| CC(C)(C)OC(=O)N1CCC(SC(=S)NCCCCNC(=O)NCc2ccccc2)CC1 | 4.7 | 7.94 | 18.6 | 34 (≈ 16.3 µg/mL) | 6.05 |
| Cc1ccccc1[S+]([O-])CCCCN=C=S (stereo not drawn) | 4.6 | 63.1 | 1.3 | 362 (≈ 91.7 µg/mL) | 4.69 |
| O=C(NCCCCN=C=S)NC1CCCC1 | 4.4 | 50.1 | 2.66 | 419 (≈ 101 µg/mL) | 4.1 |
| CNC(=O)NCCCCNC(=S)SC1CCN(C(=O)OC(C)(C)C)CC1 | < 4 | > 100 | 0.59 | ≥ 377 | 4.58 |
| CN1CCC(SC(=S)NCCCCNC(=O)OCc2ccccc2)CC1 | 5.2 | 10 | 4.67 | 355 (≈ 140 µg/mL) | 3.49 |
| CC(C)(C)OC(=O)N1CCC(SC(=O)NCCCCN=C=S)CC1 | 5.1 | 12.6 | 4.01 | 77 (≈ 28.8 µg/mL) | 6.72 |
| [O-][S+](CCCCN=C=S)c1ccccn1 (stereo not drawn) | 4.2 | 31.6 | 1.17 | ≥ 372 | 3.16 |
| COCCOC(=O)NCCCCN=C=S | < 4 | > 100 | 0.17 | 1 (≈ 0.232 µg/mL) |  |
| CN1CCC(SC(=S)NCCCCNC(=O)OCc2ccccc2Cl)CC1 | 5.3 | 3.98 | 6.26 | 280 (≈ 120 µg/mL) | 4.06 |
| Cn1cc(CCN=C=S)c2ccccc21 | 5.2 | 10 | 0.04 | 38 (≈ 8.22 µg/mL) | 7.23 |
| CS(=O)(=O)N1CCC(CCN=C=S)C1 (stereo not drawn) | 4.3 | > 100 | 4.27 | 288 (≈ 67.5 µg/mL) | 3.87 |
| CN(C)C(=O)/C(C#N)=C/CCCCCS(C)(=O)=O |  |  | 0.18 |  |  |
| CN(C)CCC[S+]([O-])CCCCN=C=S (stereo not drawn) | < 4 | > 100 | 0.27 | ≥ 250 | 0.81 |

| Compound | pIC50 [1] | IC50 [2] [µM] | fold change (FC) [3] | solubility kinetic [4] [µM] | chromatographic logD [5] |
| --- | --- | --- | --- | --- | --- |
| CN1CCC(SC(=S)NCCCCNC(=O)Nc2cccnc2)CC1 | 4.7 | 39.8 | 16 | ≥ 345 | 1.11 |
| O=C(NCCCCN=C=S)C1CCCCC1 | 4.4 | 50.1 | 1.13 | 369 (≈ 88.7 µg/mL) |  |
| CN1CCC(SC(=S)NCCCCNC(=O)Nc2ccc3ncsc3c2)CC1 | 5.4 | 7.94 | 25.5 |  | 1.91 |
| O=C(CC1CCCCC1)NCCCCN=C=S | 4.8 | 25.1 | 11.5 | ≥ 413 |  |
| CC(C)(C)OC(=O)N1CCC(SC(=S)NCCCCNC(=O)Nc2ccc3c(c2)OCCO3)CC1 | 4.4 | 31.6 | 74.8 |  | 5.79 |
| O=C(NCCCCN=C=S)OCc1ccccc1 | 5.1 | 12.6 | 0.63 |  |  |
| CC[S+]([O-])C(=O)N(CCCC[S+](C)[O-])Cc1ccccc1 (stereo not drawn) |  |  | 0.27 |  |  |
| CN(C)C(=O)CCCCN=C=S | 4.2 | > 100 | 0.71 |  |  |
| C[S+]([O-])CCCCCCN=C=S (stereo not drawn) |  | > 100 |  | ≥ 324 | 0.9 |
| CNC(=O)CCCCN=C=S | 4.1 | > 100 | 0.7 |  |  |
| CN(C)C(=O)/C=C/CCCCCS(C)(=O)=O |  |  | 0.13 |  |  |
| O=C(NCCCN=C=S)OCc1ccccc1 | 5 | 5.01 | 32.2 |  |  |
| CN1CCC(SC(=S)NCCCCNC(=O)Nc2ccc3c(c2)OCCO3)CC1 | 5 | 12.6 | 23.6 |  | 2.24 |
| CC(=O)NCCSC(=S)NCCCC[S+](C)[O-] (stereo not drawn) |  | > 100 |  | ≥ 531 | 0.58 |
| CC(C)(C)OC(=O)N1CCC(SC(=S)NCCCCNC(=O)Nc2ccc3ncsc3c2)CC1 | 4.7 | 31.6 | 18.3 |  | 5.45 |
| CN(C)C(=O)/C(C#N)=C/CCCCC[S+](C)[O-] (stereo not drawn) |  |  | 0.33 |  |  |
| CSc1c(N(C)CCCC[S+](C)[O-])c(=O)c1=O (stereo not drawn) |  |  | 0.14 |  |  |
| CN(C)C(=O)/C=C/CCCCC[S+](C)[O-] (stereo not drawn) |  |  | 0.11 |  |  |
| CC(=O)NCCCCN=C=S | 4.2 | > 100 | 0.54 |  |  |
